Experimental data published in US20240409944A1, “COMPOSITIONS AND METHODS FOR THE INHIBITION OF TUMOR METASTASIS AND HORIZONTAL GENE TRANSFER” (The Regents of the University of Colorado, a body corporate, priority 2021, published 2024).
Entries after “also recorded” stand apart in the source; their conditions may differ. Read-outs that look alike come from different tables or passages of the source. *1 amine or outer side, *2 acyl side, *3 side chain or, on linkers, in order; H or OH if unused. Where a SMILES comes first, the peptide text is derived from it. Bridges are numbered along the chain shown (N, C = ends). Roman numbers before positions name the chains, in order. [ ]: non-standard residue; d: D form. Actinocin(9to1) = Cc1c2oc3c(C)ccc(C(=O)[*:1])c3nc-2c(C(=O)[*:2])c(N)c1=O; NMeV = CN[C@H](C(=O)O)C(C)C; Sar = CNCC(=O)O

How the values were obtained:
[1] = tested on: MDASC43 & RPE1-VEP co-culture; assay: 48-hour live cell imaging of CIC structures, MDASC43 co-culture; format: cell-based; conditions: 10 μM Doxorubicin, 100 μM Hygromycin B; for effect on number/frequency of CIC structures / average duration of CIC structures / time at which CIC structures were concentrated: 20 μM Actinomycin D; for average duration of CIC structures / time at which CIC structures were concentrated: alone or combined
[2] = tested on: RPE1-Venus-Parkin and MDA-MB-231-H2B-mCherry co-culture; assay: Intercellular gene transfer in co-culture, flow cytometric analysis; format: cell-based
[3] = tested on: HUVEC and MDA-MB-231-H2B-mCherry co-culture; assay: Live cell imaging of CIC structures, HUVEC co-culture; format: cell-based, Human; conditions: preliminary
F-actin = F-actin stability (Alexa Fluor 594 Phalloidin); format: cell-based; conditions: co-cultured RPE1-VEP and MDA-MB-231-H2BmCherry
Description: Immunofluorescence microscopy was performed as described previously.

[4] = tested on: MDA-MB-231-H2B-mCherry and RPE1-Venus-Parkin co-culture; assay: Cell entrapment (cell-in-cell structure formation), live-cell imaging; conditions: inhibitor treatment
[5] = compound present in the co-culture, Hygromycin B 100 μM

Question: Which results are given for `Cc1c2oc3c(C)ccc(C(=O)N[C@@H]4C(=O)N[C@H](C(C)C)C(=O)N5CCC[C@H]5C(=O)N(C)CC(=O)N(C)[C@@H](C(C)C)C(=O)O[C@@H]4C)c3nc-2c(C(=O)N[C@@H]2C(=O)N[C@H](C(C)C)C(=O)N3CCC[C@H]3C(=O)N(C)CC(=O)N(C)[C@@H](C(C)C)C(=O)O[C@@H]2C)c(N)c1=O` [Actinomycin D] (I: T[dV]P[Sar][NMeV] / II: T[dV]P[Sar][NMeV]; ester I:1-I:C, II:1-II:C; linker I:N-II:N via Actinocin(9to1))?
Answer: effect on number/frequency of CIC structures [1]: significantly increased; average duration of CIC structures [1]: 6.04 h; time at which CIC structures were concentrated [1]: 9.2 to 15.3 h; effect on gene transfer [2]: prevents; gene transfer percentage [2]: 1.5%; average CIC structure duration ([3]; 100 μM Hygromycin B, 20 μM Actinomycin D, or combination, 1 focus field): 2.1 h; time at which CIC structures were concentrated ([3]; 100 μM Hygromycin B, 20 μM Actinomycin D, or combination): 2.9 to 5.1 h; effect on CIC structures (induction, frequency) [3]: induced

Question: With `COc1cccc2c1C(=O)c1c(O)c3c(c(O)c1C2=O)C[C@@](O)(C(=O)CO)C[C@@H]3O[C@H]1C[C@H](N)[C@H](O)[C@H](C)O1` [Doxorubicin] as the compound, how does the “effect on number/frequency of CIC structures” value [1] read?
Answer: most CIC structure formation; also recorded: significantly increased

Question: What about the “average duration of CIC structures” value [1] of the same compound?
Answer: 11.5 h

Question: And the “time at which CIC structures were concentrated” value [1]?
Answer: 13.6 to 25.1 h

Question: And the “effect on CIC structure duration” value [1]?
Answer: significantly higher; also recorded: significantly increased

Question: And the “effect on gene transfer” value [2, 5]?
Answer: inhibiting

Question: `C/C1=C/C(=O)O[C@@H]2C[C@@H](CC[C@H](C)/C=C\CC1)O[C@@](O)([C@@H]1CSC(=O)N1)C2` [Latrunculin B] was tested. Which “concentration that resulted in the lowest percentage of gene transfer to RPE cells” value [2] did it give?
Answer: 3 µM

Question: And the “effect on gene transfer” value [2, 5]?
Answer: significantly decreased

Question: And the F-actin levels (F-actin)?
Answer: significantly decreased

Question: How did the “effect on gene transfer” value [2, 5] turn out when `COc1ccc(C2CC(c3ccccc3)=NN2c2ccc(S(N)(=O)=O)cc2)cc1` (centres unmarked) [ML141] was run?
Answer: decreased; also recorded: significant effect

Question: `Cc1cn([C@H]2C=C[C@@H](CO)O2)c(=O)[nH]c1=O` [Stavudine] was tested. Which IC50 ([2]; later used as positive control of the screen, read-out: IC50 as potential tangocytosis inhibitor) did it give?
Answer: 1830 nM

Question: Which results are given for `C[C@@H](N)[C@H]1CC[C@H](C(=O)Nc2ccncc2)CC1` [Y27632]?
Answer: effect on gene transfer [2, 5]: effect of ROCKs perturbation by RNA depletion was phenocopied; effect on cell entrapment (cell-in-cell structure formation) [4]: effect of ROCKs perturbation by RNA depletion was phenocopied
